Measured values from patent US12522584B2, “3,4-dihydroisoquinoline compound and use thereof” (CSPC Zhongqi Pharmaceutical Technology (Shijiazhuang) Co., …, priority 2020, dated 2026).
Marks after values point to notes of the source that are not given here.

Legend:
MV4-11 xenografts = experiment: In vivo efficacy in MV4-11 subcutaneous xenograft model; conditions: for d9 Tumor Volume (mm^3) / Body Weight Change (%) / Tumor Weight / Tumor weight inhibition rate (%) / RTV (d9): 100 mg/kg BID; for d9 Tumor Volume (mm^3): 9th day after administration; for Body Weight Change (%): 11 consecutive days, NOD-SCID mice; for Tumor Weight / Tumor weight inhibition rate (%): 11 days; for Tumor Weight: tumors dissected at end; for Tumor weight inhibition rate (%): versus vehicle group; for d0 Tumor Volume (mm^3): d0, before grouping for administration (baseline); for RTV (d9): relative tumor volume = d9/d0 tumor volume
Description: Experimental female NOD-SCID mice, SPF grade, 4 to 5 weeks, were purchased from Beijing Vital River Laboratory Animal Technology Co., Ltd. The mice were intraperitoneally injected with cyclophosphamide at a dose of 100 mg/kg one day before cell inoculation. The human acute monocytic leukemia cell line MV4-11 (1×10^7/0.1 ml/mouse) was subcutaneously inoculated into forelimb axilla of mice to establish a subcutaneous xenograft model. When the tumor volumes reached about 110 mm^3 (10 days after inoculation), the mice were equally grouped according to the tumor volume, with 5 mice in each group, i.e., vehicle group (2% DMSO+98% (0.2 g/mL) hydroxypropyl-β-cyclodextrin) and test drug groups. For the test drug groups, the dose of administration was 100 mg/kg, the dosing volume was 10 mL/kg, the dosing frequency was BID, the tumor diameters were measured twice per week, and the data was recorded. The mice were administered for 11 consecutive days. When the experiment ended, the tumors were dissected and weighed.

[1] = Pharmacokinetic experiment in SD rats; conditions: male, rat, plasma, po, 25 mg/kg
Description: (§1) SD rats (male, 180 g to 200 g, Beijing Vital River Laboratory Animal Technology Co., Ltd.) were administered with the test compounds (solvent: 2% DMSO+98% (0.2 g/mL) hydroxypropyl-β-cyclodextrin, dosing volume: 5 mL/kg) by gavage. Blood was collected from the orbits of the rats at different points in time (0.25, 0.5, 1, 2, 4, 8, 24 h) after administration. The collected whole blood was anticoagulated with heparin sodium and centrifuged at 3000 g to obtain rat plasma samples, and methanol was added thereto to precipitate proteins. The drug concentration in rat plasma after administration was determined by HIPLC-MS/MS method. A drug concentration-time curve was plotted and the pharmacokinetic parameters were calculated. Pharmacokinetic behaviors of the compounds after administration in rats were described by means of the parameter estimation of non-compartmental model based on statistical moment theory.

PRMT5 = PRMT5 (Homo sapiens (Human), UniProt O14744); experiment: radiometric assay for PRMT5 based on FlashPlate technology; type: biochemical; conditions: PRMT5 5 nM, [3H]-SAM, 60 min at 25° C.; read-out: Enzymology (IC50)
PRMT5, sequence (O14744 whole entry): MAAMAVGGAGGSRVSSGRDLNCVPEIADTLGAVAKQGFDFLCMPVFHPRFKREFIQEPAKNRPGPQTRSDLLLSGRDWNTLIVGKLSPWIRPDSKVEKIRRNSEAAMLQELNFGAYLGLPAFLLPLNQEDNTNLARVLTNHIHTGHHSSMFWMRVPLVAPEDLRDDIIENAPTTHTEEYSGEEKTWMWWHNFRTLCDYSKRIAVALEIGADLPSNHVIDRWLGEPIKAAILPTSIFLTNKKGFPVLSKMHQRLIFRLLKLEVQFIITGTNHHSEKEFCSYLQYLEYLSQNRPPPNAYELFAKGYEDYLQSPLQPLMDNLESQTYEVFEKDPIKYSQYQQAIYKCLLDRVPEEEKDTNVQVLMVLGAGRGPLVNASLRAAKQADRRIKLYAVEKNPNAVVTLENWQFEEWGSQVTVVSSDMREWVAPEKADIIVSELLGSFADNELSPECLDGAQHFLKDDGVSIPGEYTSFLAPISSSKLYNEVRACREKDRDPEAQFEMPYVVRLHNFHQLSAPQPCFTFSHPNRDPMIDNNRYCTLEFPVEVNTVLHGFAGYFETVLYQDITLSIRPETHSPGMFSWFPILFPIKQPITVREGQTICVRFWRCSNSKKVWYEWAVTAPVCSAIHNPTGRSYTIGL
PRMT5, sequence (Q9BQA1 whole entry partner): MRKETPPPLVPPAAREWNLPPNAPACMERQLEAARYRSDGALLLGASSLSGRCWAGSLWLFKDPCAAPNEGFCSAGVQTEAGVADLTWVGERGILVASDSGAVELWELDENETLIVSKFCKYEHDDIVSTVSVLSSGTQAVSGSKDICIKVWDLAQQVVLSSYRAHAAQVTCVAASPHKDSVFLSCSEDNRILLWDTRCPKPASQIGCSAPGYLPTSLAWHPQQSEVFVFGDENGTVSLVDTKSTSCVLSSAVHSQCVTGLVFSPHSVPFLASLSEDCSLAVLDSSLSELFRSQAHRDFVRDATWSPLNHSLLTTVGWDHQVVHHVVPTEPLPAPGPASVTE
Description: The radiometric assay for PRMT5 based on FlashPlate technology was adopted to determine IC50 of the test compound.
After dissolved in dimethyl sulfoxide respectively, the test compounds were added into an Echo Qualified 384-well plate and diluted to the desired concentrations. The diluted test compounds were transferred from the Echo Qualified 384-well plate to a 384-well reaction plate using an Echo 550 instrument, and dimethyl sulfoxide was transferred into both the control and blank wells. PRMT5 was added to 1×reaction buffer (including 10 mM Tris-HCl; pH 8.0; 0.01% Tween-20; 1 mM DTT) to form a 1.67×enzyme solution (at an enzyme concentration of 5 nM). A polypeptide substrate and [3H]-SAM were added to 1× reaction buffer to form a 2.5× substrate solution (the terminal concentrations of the substrates were 100 nM and 250 nM, respectively). At a volume of 15 μL/well, the 1.67× enzyme solution was added into wells of the 384-well reaction plate. In case of the blank wells, the enzyme solution was replaced with 15 μL of the 1× reaction buffer. The reaction plate was centrifuged at 1000 rpm for 1 min, and incubated at room temperature for 15 min. To each well of the 384-well reaction plate, 10 μL of the 2.5× substrate solution was added, centrifuged at 1000 rpm for 1 min, and reacted at 25° C. for 60 min. To each well of the 384-well reaction plate, 5 μL of reaction stop solution (which was […] cold SAM solution) was added to terminate the reaction. From each well of the test plate, 25 μL was measured and transferred to Flashplate and left at room temperature for 1 h. Thereafter, the Flashplate was washed with 0.1% Tween-20 solution three times. Readings were taken with MicroBeta 2. The data was converted into the inhibition rate data. Inhibition rate=(conversion ratecontrol well−conversion ratecompound well)/(conversion ratecontrol well−conversion rateblank well)×100%. The IC50curves were fitted using XLFit5.4.0.8. The fitting equation was as follows:Y=Bottom+(Top-Bottom)/(1+(IC50/X)^HillSlope).

[2] = test system: human acute monocytic leukemia cell line MV4-11; experiment: MV4-11 MTT cell growth inhibition; type: cell-based; conditions: 144 h, MV4-11 cells, MTT on Day 6
Description: The complete medium required for the culture of human acute monocytic leukemia cell line MV4-11 (Shanghai Cell Bank) for experiment was IMDM (Cat NO. 12440-053, gibco) supplemented with 10% FBS (Cat NO. SA311.02, cellmax). The cells were cultured in an incubator at 37° C. with 5% CO2. The experiment reagents included dimethyl sulfoxide (Tianjin Kemiou Chemical Reagent Co., Ltd.) and MTT (THIAZOLYL BLUE TETRAZOLIUM BROMIDE, CAS. NO. 298-93-1, VWR). The control compound GSK3326595 for experiment was homemade or commercially available. The test compound was encapsulated and stored at 4° C.
Dimethyl sulfoxide was used as a vehicle to fully dissolve the test compound, thereby formulating a stock solution at a concentration of 5×10^−2 mol/L. The stock solution was stored at −20° C. With the complete medium as diluent, the test compound was subjected to gradient dilution to afford dilutions at different concentrations for standby application. In a 96-well culture plate, the suspension of the human acute monocytic leukemia cell line MV4-11 in the complete medium, at a volume of 100 μL/well (2×10^3 cells/well), was added. Afterwards, the dilutions at different concentrations of the corresponding test compounds (100 μL/well) were added, respectively. Each of the test compounds was provided with 8 concentration gradients and three replicates were used for each concentration. The plates were incubated in an incubator at 37° C. with 5% CO2. On Day 6, the plate was treated with MTT (20 μL/well) and incubated for 4 h in an incubator at 37° C. with 5% CO2. The supernatant was discarded. Dimethyl sulfoxide (150 μL/well) was added and mixed well by shaking. The OD value at 550 nm was measured with a microplate reader. Wells containing only cell suspensions without the test compounds were control wells, and wells containing only complete media were blank wells. The cell growth inhibition rate was calculated according to the following equation: Inhibition rate=(OD valuecontrol well−OD valuesample well)/(OD valuecontrol well−OD valueblank well)×100%. According to the inhibition rate at each concentration, the half maximal inhibitory concentration IC50 value was calculated using the SPSS software. 2. Enzymatic Experiment

in vivo = conditions: male, SD, rat, po, 25 mg/kg
Description: as §1

SMILES	d9 Tumor Volume (mm^3) (MV4-11 xenografts)	Tumor Weight (MV4-11 xenografts) [g]	Tumor weight inhibition rate (%) (MV4-11 xenografts)	d0 Tumor Volume (mm^3) (MV4-11 xenografts)	RTV (d9) (MV4-11 xenografts)	AUC(0-t) [1] [ng·h/mL]	Cmax [1] [ng/mL]	Tmax [1] [min]	IC50 (PRMT5) [nM]	IC50 [2] [nM]	other results
CC(=O)N1CCC(Nc2cc(C(=O)NC[C@H](O)CN3CCc4ccccc4C3)ncn2)CC1 [GSK3326595, reference compound]	135 ± 43** mm^3	0.1124 ± 0.0764	84.5	165.2 ± 23.1	0.8 ± 0.2	–	–	–	–	–	Body Weight Change (%) (MV4-11 xenografts): −6.8%
CON=C(C(=O)NC1CC2(C1)CC(Nc1cc(C(=O)NC[C@H](O)CN3CCc4ccccc4C3)ncn1)C2)C1CC1 (stereo partly drawn) [PR-7, (S)-6-((6-(2-cyclopropyl-2-(methoxyimino)acetamido)spiro[3.3]heptan-2-yl)amino)-N-(3-(3,4-dihydroisoquinolin-2(1H)-yl)-2-hydroxypropyl)pyrimidine-4-carboxamide]	60.2 ± 20.1***## mm^3	0.0710 ± 0.0353	90.2	165.6 ± 28.1	0.4 ± 0.1	2540	1120	40	14	1.04	Body Weight Change (%) (MV4-11 xenografts): −6.9%
O=C(NC[C@H](O)CN1CCc2ccccc2C1)c1cc(NC2CC3(C2)CN(C(=O)C(=NO)C2CC2)C3)ncn1 [PR-11, (S)-6-((2-(2-cyclopropyl-2-(hydroxyimino)acetyl)-2-azaspiro[3.3]heptan-6-yl)amino)-N-(3-(3,4-dihydroisoquinolin-2(1H)-yl)-2-hydroxypropyl)pyrimidine-4-carboxamide]	–	–	–	–	–	–	–	–	18	1.4	–
CC(=NO)C(=O)NC1CC2(C1)CC(Nc1cc(C(=O)NC[C@H](O)CN3CCc4ccccc4C3)ncn1)C2 (stereo partly drawn) [PR-8, (S)-N-(3-(3,4-dihydroisoquinolin-2(1H)-yl)-2-hydroxypropyl)-6-((6-(2-(hydroxyimino)propanamido)spiro[3.3]heptan-2-yl)amino)pyrimidine-4-carboxamide]	–	–	–	–	–	–	–	–	19	0.98	–
CON=C(CC(C)C)C(=O)N1CCC(Nc2cc(C(=O)NC[C@H](O)CN3CCc4ccccc4C3)ncn2)CC1 [PR-5, (S)-N-(3-(3,4-dihydroisoquinolin-2(1H)-yl)-2-hydroxypropyl)-6-((1-(2-(methoxyimino)-4-methylpentanoyl)piperidin-4-yl)amino)pyrimidine-4-carboxamide]	–	–	–	–	–	674	660	20	23	1.44	–
CON=C(C)C(=O)N1CCC2(CC1)CC(Nc1cc(C(=O)NC[C@H](O)CN3CCc4ccccc4C3)ncn1)C2 [PR-13, (S)-N-(3-(3,4-dihydroisoquinolin-2(1H)-yl)-2-hydroxypropyl)-6-((7-(2-(methoxyimino)propanoyl)-7-azaspiro[3.5]nonan-2-yl)amino)pyrimidine-4-carboxamide]	69.7 ± 22.9***# mm^3	0.0679 ± 0.0225	90.6	165.4 ± 30.2	0.4 ± 0.1	–	–	–	16	1.53	AUC(0-t) (in vivo): 840 ng·h/mL; Cmax (in vivo): 516 ng/mL; Tmax (in vivo): 50 min
CC(=NO)C(=O)N1CCC(Nc2cc(C(=O)NC[C@H](O)CN3CCc4ccccc4C3)ncn2)CC1 [PR-3, (S)-N-(3-(3,4-dihydroisoquinolin-2(1H)-yl)-2-hydroxypropyl)-6-((1-(2-(hydroxyimino)propanoyl)piperidin-4-yl)amino)pyrimidine-4-carboxamide]	–	–	–	–	–	–	–	–	15	1.24	–
CON=C(C(=O)N1CC2(CC(Nc3cc(C(=O)NC[C@H](O)CN4CCc5ccccc5C4)ncn3)C2)C1)C1CC1 [PR-12, (S)-6-((2-(2-cyclopropyl-2-(methoxyimino)acetyl)-2-azaspiro[3.3]heptan-6-yl)amino)-N-(3-(3,4-dihydroisoquinolin-2(1H)-yl)-2-hydroxypropyl)pyrimidine-4-carboxamide]	–	–	–	–	–	–	–	–	2.7	0.691	–
O=C(NC1CC2(C1)CC(Nc1cc(C(=O)NC[C@H](O)CN3CCc4ccccc4C3)ncn1)C2)C(=NO)C1CC1 (stereo partly drawn) [PR-6, (S)-6-((6-(2-cyclopropyl-2-(hydroxyimino)acetamido)spiro[3.3]heptan-2-yl)amino)-N-(3-(3,4-dihydroisoquinolin-2(1H)-yl)-2-hydroxypropyl)pyrimidine-4-carboxamide]	–	–	–	–	–	–	–	–	16	1.9	–
CON=C(C)C(=O)N1CCC(Nc2cc(C(=O)NC[C@H](O)CN3CCc4ccccc4C3)ncn2)CC1 [PR-4, (S)-N-(3-(3,4-dihydroisoquinolin-2(1H)-yl)-2-hydroxypropyl)-6-((1-(2-(methoxyimino)propanoyl)piperidin-4-yl)amino)pyrimidine-4-carboxamide]	55.7 ± 19.7***## mm^3	0.0648 ± 0.0267	91.1	165.3 ± 27.5	0.4 ± 0.1	–	–	–	–	6.77	Body Weight Change (%) (MV4-11 xenografts): −6.1%
CON=C(C(=O)N1CCC(Nc2cc(C(=O)NC[C@H](O)CN3CCc4ccccc4C3)ncn2)CC1)C1CC1 [PR-2, (S)-6-((1-(2-cyclopropyl-2-(methoxyimino)acetyl)piperidin-4-yl)amino)-N-(3-(3,4-dihydroisoquinolin-2(1H)-yl)-2-hydroxypropyl)pyrimidine-4-carboxamide]	–	–	–	–	–	821	473	30	13	–	–
O=C(NC[C@H](O)CN1CCc2ccccc2C1)c1cc(NC2CCN(C(=O)C(=NO)C3CC3)CC2)ncn1 [PR-1, (S)-6-((1-(2-cyclopropyl-2-(hydroxyimino)acetyl)piperidin-4-yl)amino)-N-(3-(3,4-dihydroisoquinolin-2(1H)-yl)-2-hydroxypropyl)pyrimidine-4-carboxamide]	–	–	–	–	–	–	–	–	13	5.02	–
CON=C(C)C(=O)NC1CC2(C1)CC(Nc1cc(C(=O)NC[C@H](O)CN3CCc4ccccc4C3)ncn1)C2 (stereo partly drawn) [PR-9, (S)-N-(3-(3,4-dihydroisoquinolin-2(1H)-yl)-2-hydroxypropyl)-6-((6-(2-(methoxyimino)propanamido)spiro[3.3]heptan-2-yl)amino)pyrimidine-4-carboxamide]	–	–	–	–	–	1270	875	30	23	6.84	–
